In general, IC50 refers to the point on the concentration scale where inhibition reaches its midpoint. Read a low IC50 as inhibition by little substance.

This assay concerns the target Aldo-keto reductase family 1 member A1 (Bos taurus). Briefly: Evaluated for inhibition of Aldehyde reductase 1.
Regarding `O=C(O)Cn1nc2c(c(C(=O)O)c1=O)CCc1ccccc1-2` [2-Carboxymethyl-3-oxo-2,3,5,6-tetrahydro-benzo[h]cinnoline-4-carboxylic acid], the IC50 was 161 µM.

Take `O=C(O)Cn1nc2c(c(C(=O)O)c1=O)Cc1ccccc1-2` [2-Carboxymethyl-3-oxo-3,5-dihydro-2H-indeno[1,2-c]pyridazine-4-carboxylic acid]: the IC50 was determined as 136 µM.

`Cc1cc(C)c2c(c1)-c1nn(CCC(=O)O)c(=O)cc1CC2` [3-(7,9-Dimethyl-3-oxo-5,6-dihydro-3H-benzo[h]cinnolin-2-yl)-propionic acid]: the IC50 turned out to be 289 µM.

`O=C(O)CCCn1nc2c(cc1=O)CCc1ccccc1-2` [4-(3-Oxo-5,6-dihydro-3H-benzo[h]cinnolin-2-yl)-butyric acid] returned an IC50 of 92.6 µM.

In turn, `O=C(O)Cn1nc2c(cc1=O)Cc1ccccc1-2` [(3-Oxo-3,5-dihydro-indeno[1,2-c]pyridazin-2-yl)-acetic acid] had an IC50 of 107 µM.

The compound `O=C(O)Cn1nc2c(cc1=O)CCc1ccccc1-2` [(3-Oxo-5,6-dihydro-3H-benzo[h]cinnolin-2-yl)-acetic acid] yielded an IC50 of 156 µM.

Regarding `Cc1cc(C)c2c(c1)-c1nn(CC(=O)O)c(=O)cc1CC2` [(7,9-Dimethyl-3-oxo-5,6-dihydro-3H-benzo[h]cinnolin-2-yl)-acetic acid], half-maximal inhibition (IC50) required 295 µM.
